Ten molecules from patent US8980905B2, “Benzodioxole or benzodioxepine heterocyclic compounds as phosphodiesterase inhibitors” (Leo Pharma A/S, priority 2010, dated 2015) can be followed below.

Chain of Human recombinant PDE4 (Genbank accession no NM-006203) (Q08499 other isoform, or with tags, fused parts or gaps): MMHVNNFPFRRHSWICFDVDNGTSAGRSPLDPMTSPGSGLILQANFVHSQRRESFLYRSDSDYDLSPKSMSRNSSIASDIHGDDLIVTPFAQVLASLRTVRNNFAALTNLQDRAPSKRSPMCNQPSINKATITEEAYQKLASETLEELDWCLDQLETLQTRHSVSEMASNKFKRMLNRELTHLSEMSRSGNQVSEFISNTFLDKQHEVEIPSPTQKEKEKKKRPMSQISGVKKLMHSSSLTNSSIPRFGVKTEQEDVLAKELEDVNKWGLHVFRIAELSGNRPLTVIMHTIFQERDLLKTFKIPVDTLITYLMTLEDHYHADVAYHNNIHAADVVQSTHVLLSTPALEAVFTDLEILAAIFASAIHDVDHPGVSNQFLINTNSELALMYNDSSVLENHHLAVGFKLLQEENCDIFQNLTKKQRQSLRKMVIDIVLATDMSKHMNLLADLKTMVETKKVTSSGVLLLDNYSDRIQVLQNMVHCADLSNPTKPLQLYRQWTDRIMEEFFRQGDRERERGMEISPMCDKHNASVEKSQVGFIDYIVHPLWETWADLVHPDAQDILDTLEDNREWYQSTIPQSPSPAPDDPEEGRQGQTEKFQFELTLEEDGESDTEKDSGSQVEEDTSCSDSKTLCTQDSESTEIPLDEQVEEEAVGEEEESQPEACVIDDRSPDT

Tested on in one series: not listed separately
As to the kind of experiment: In vivo pharmacokinetic analyses in rat. The settings on record: serum, PO dosing 5 mg/kg, read-out: Serum Cmax of parent compound. The protocol: One rat is dosed orally (5 mg/kg—dissolved in DMSO/H2O/propylenglycol [1:5:4]) and blood samples are taken from the sublingual venous plexus at 30 min, 1 h, 2 h, 4 h and 6 h. Blood samples are taken in BD Vacutainer SST serum separation tubes, serum is isolated by centrifugation, transferred to micronics tubes and subsequently analysed.
Mass spectrometer (API5000 series) parameters are optimised to analyse for the specific compounds and test injections are performed to confirm the validity of the established generic chromatography method. The generic method is based on fast gradient (2.5 min) analysis on C18 column with mobile phases consisting methanol, ammonium acetate, formic acid and water.
Standards are prepared in rat serum to cover the analytical range 0.1 to 300 ng/ml. Standards, blank serum and study samples are applied to 96 deepwell plate and proteins are precipitated by addition of acetonitrile containing internal standard. Samples are analysed on LC-MS/MS usually overnight. Integration and quantification is performed on ration between analyte and internal standard using Analyst software version 1.5. Pharmacokinetic parameters are calculated using a standardised Excel spreadsheet.
One may read the Cmax as the highest concentration seen after dosing. Regarding `O=C(Cc1c(Cl)c[n+]([O-])cc1Cl)c1ccc(OC(F)F)c2c1OC1(CCOCC1)O2` [Compound 106, 2-(3,5-Dichloro-1-oxido-pyridine-4-yl)-1-(7-difluoromethoxy-2′,3′,5′,6′-tetrahydro-spiro[1,3-benzodioxole-2,4′-(4H)-pyran]-4-yl)ethanone], the peak concentration (Cmax) is 133 ng/mL.
On the same count and under the same terms, the result for `O=C(Cc1c(Cl)cncc1Cl)c1ccc(OC(F)F)c2c1OC1(CCOCC1)O2` [Compound 105, 2-(3,5-Dichloropyridine-4-yl)-1-(7-difluoromethoxy-2′,3′,5′,6′-tetrahydro-spiro[1,3-benzodioxole-2,4′-(4H)-pyran]-4-yl)ethanone] reads under 3 ng/mL.

A further series has as its target Human recombinant PDE4 (Genbank accession no NM-006203) (Homo sapiens (Human), UniProt Q08499). In words: PDE4 Assay (SPA, cAMP cleavage). In kind it is biochemical. The settings on record: human recombinant PDE4, 1 hour incubation, cAMP 1x10-5 M; read-out: IC50 (PDE4). The protocol:
Human recombinant PDE4 (Genbank accession no NM_006203) was incubated for 1 hour, with the test compound at concentrations up to 10 μM, with cAMP (1×10^-5M), and with a low amount (0.021 MBq) of radioactively labelled cAMP. At the end of the incubation, the cleavage of the substrate was evaluated by the binding of the AMP product to SPA beads, which generate chemoluminescence when bound to the radioactive tracer. The AMP product inhibited the binding of the radioactive tracer to the beads, and the luminescent signal was competed.
The results were calculated as the molar concentrations resulting in 50% inhibition of the substrate cleavage compared to controls samples, and are expressed as IC50 (M).
For `O=C(Cc1c(Cl)c[n+]([O-])cc1Cl)c1ccc(OC(F)F)c2c1OC1(CCS(=O)(=O)CC1)O2` [Compound 108, 2-(3,5-Dichloro-1-oxido-pyridine-4-yl)-1-(7-difluoromethoxy-2′,3′,5′,6′-tetrahydro-spiro[1,3-benzodioxole-2, 4′-(4H)-thiopyran-1′,1′-dioxide]-4-yl)ethanone], the IC50 came out at 16 nM.
As for `O=C(Nc1c(Cl)cncc1Cl)c1ccc(OC(F)F)c2c1OC1(CCSCC1)O2` [Compound 110, N-(3,5-Dichloro-4-pyridyl)-7-Difluoromethoxy-2′,3′,5′,6′-tetrahydro-spiro[1,3-benzodioxole-2,4′-(4H)-thiopyran]-4-carbamide], the IC50 amounted to 2 nM.
Same read-out and setting: the result for `O=C(Nc1c(Cl)c[n+]([O-])cc1Cl)c1ccc(OC(F)F)c2c1OC1(CCS(=O)(=O)CC1)O2` [Compound 111, N-(3,5-dichloro-1-oxo-4-pyridyl)-7-(difluoromethoxy)-1′,1′-dioxo-spiro[1,3-benzodioxole-2,4′-thiane]-4-carboxamide] reads 106 nM.
On the same count and under the same terms, the result for `O=C(Cc1c(Cl)cncc1Cl)c1ccc(OC(F)F)c2c1OCC1(CCOCC1)CO2` [Compound 103, 2-(3,5-Dichloropyridin-4-yl)-1-{9-difluoromethoxy-spiro[2H-1,5-benzodioxepin-3(4H),4′-tetrahydropyran]-6-yl}ethanone] reads 6 nM.
The same measure, in the same setting: the result for `O=C(Cc1c(Cl)c[n+]([O-])cc1Cl)c1ccc(OC(F)F)c2c1OCC1(CCOCC1)CO2` [Compound 104, 2-(3,5-Dichloro-1-oxido-pyridin-4-yl)-1-{9-difluoromethoxy-spiro[2H-1,5-benzodioxepin-3(4H),4′-tetrahydropyran]-6-yl}ethanone] reads 4 nM; that for `O=C(Cc1c(Cl)cncc1Cl)c1ccc(OC(F)F)c2c1OC1(CCS(=O)(=O)CC1)O2` [Compound 109, 2-(3,5-Dichloropyridine-4-yl)-1-(7-difluoromethoxy-2′,3′,5′,6′-tetrahydro-spiro[1,3-benzodioxole-2, 4′-(4H)-thiopyran-1′,1′-dioxide]-4-yl)ethanone], 13 nM; that for `O=C(Cc1c(Cl)c[n+]([O-])cc1Cl)c1ccc(OC(F)F)c2c1OC1(CCOCC1)O2` [Compound 106, 2-(3,5-Dichloro-1-oxido-pyridine-4-yl)-1-(7-difluoromethoxy-2′,3′,5′,6′-tetrahydro-spiro[1,3-benzodioxole-2,4′-(4H)-pyran]-4-yl)ethanone], 5 nM.
For `O=C(Cc1c(Cl)cncc1Cl)c1ccc(OC(F)F)c2c1OC1(CCOCC1)O2` [Compound 105, 2-(3,5-Dichloropyridine-4-yl)-1-(7-difluoromethoxy-2′,3′,5′,6′-tetrahydro-spiro[1,3-benzodioxole-2,4′-(4H)-pyran]-4-yl)ethanone], the IC50 was determined as 7 nM.
Still for that read-out and setting: the result for `O=C(Cc1c(Cl)cncc1Cl)c1ccc(OC(F)F)c2c1OCC1(COC1)CO2` [Compound 101, 2-(3,5-Dichloropyridin-4-yl)-1-{9-difluoromethoxy-spiro[2H-1,5-benzodioxepin-3(4H),3′-oxetane]-6-yl}ethanone] reads 6 nM.

Still in this series, the particulars now being: stated in text of example 15; read-out: PDE4 activity.
Regarding `O=C(Cc1c(Cl)cncc1Cl)c1ccc(O)c2c1OC1(CCOCC1)O2` [Compound 403, 2-(3,5-Dichloropyridine-4-yl)-1-(7-hydroxy-2′,3′,5′,6′-tetrahydro-spiro[1,3-benzodioxole-2,4′-(4H)-pyran]-4-yl)ethanone], the IC50 worked out at 5000 nM.
